Laboratory results as given in US20250311689A1, “SEEDLING GERMINATION AND GROWTH CONDITIONS” (PIONEER HI-BRED INTERNATIONAL, INC., priority 2022, published 2025).
Values joined by “and” are separate entries in the source; they are usually repeats but may differ in a detail not shown here. Equal values may be shown once.

How the values were obtained:
[1] = tested on: Pioneer inbred ED85E and GR013D seedlings / leaf segments; experiment: Sugar (maltose) seedling pre-treatment, leaf transformation (Table 27); format: in vivo, maize
[2] = tested on: Pioneer inbred GR0112 seedlings / leaf segments; experiment: Norflurazon (abscisic acid biosynthesis inhibitor) seedling pre-treatment, leaf transformation (Table 28); format: in vivo, maize; conditions: for # culture response (2 wk): 2 weeks after infection
[3] = tested on: Pioneer inbred ED85E seedlings / leaf segments; experiment: Gibberellic acid inhibitor seedling pre-treatment, leaf transformation (Table 24); format: in vivo, maize
[4] = tested on: Japonica rice (Oryza sativa var Kitaake) seedlings; experiment: Ancymidol pre-treatment during seed germination and seedling growth, rice; format: in vivo
[5] = tested on: teff (Eragrostis tef) seedlings; experiment: Ancymidol pre-treatment during seed germination and seedling growth, teff; format: in vivo
[6] = tested on: pearl millet (Pennisetum glaucum) seedlings; experiment: Ancymidol pre-treatment during seed germination and seedling growth, pearl millet; format: in vivo
[7] = tested on: maize inbred seedlings with pre-integrated target site 45 / leaf segments; experiment: Seedling pre-treatment with ancymidol, Agrobacterium-mediated site-specific integration (Table 22); format: in vivo; conditions: 90AE medium (900 + 2 mg/l ancymidol); 30 seedlings; PHP90842:PHP93925 9:1; no untreated comparison
[8] = tested on: Pioneer inbred GR0112 seedlings / leaf segments; experiment: Fipexide seedling pre-treatment, leaf transformation (Table 26); format: in vivo, maize; conditions: for # culture response (2 wk) / # culture response (4 wk) / T-DNA score (0-5): 42 seedlings, PHP96277; for increase of total somatic embryo (SE) number relative to the control treatment: within the first four weeks of culture, per 42 starting seedlings
[9] = tested on: Pioneer inbred ED85E seedlings / leaf segments; experiment: Cytokinin seedling pre-treatment, leaf transformation (Table 25); format: in vivo, maize; conditions: for # T0 plants / # culture response (2 wk) / # culture response (4 wk) / T-DNA score (0-5) / TXN %: 21 seedlings, PHP97334
[10] = 20 mg/l maltose in place of sucrose, 90AE medium, second replicate (inbred GR013D), 30 seedlings, PHP104215
[11] = 900 medium plus 2 mg/l ancymidol
[12] = 4.75 mg/l in 90AE medium (+ 2 mg/l ancymidol)
[13] = 9.5 mg/l in 90AE medium (+ 2 mg/l ancymidol)
[14] = 19 mg/l in 90AE medium (+ 2 mg/l ancymidol)
[15] = 1 mg/l in 90AE medium (+ 2 mg/l ancymidol)
[16] = 3 mg/l in 90AE medium (+ 2 mg/l ancymidol)
[17] = 0.1 mg/l in 90AE medium (+ 2 mg/l ancymidol)
[18] = 0.5 mg/l in 90AE medium (+ 2 mg/l ancymidol)
[19] = 2 mg/l in 900 germination medium, 24 seedlings, PHP101093
[20] = 4 mg/l in 900 germination medium, 24 seedlings, PHP101093
[21] = 6 mg/l in 900 germination medium, 24 seedlings, PHP101093
[22] = 5 mg/l in 90AE medium (+ 2 mg/l ancymidol)
[23] = 250 mg/l in 90AO medium (900 + 1 mg/l ancymidol), 30 seedlings, PHP97334
[24] = 500 mg/l in 90AO medium (900 + 1 mg/l ancymidol), 30 seedlings, PHP97334

## OC[C@H]1O[C@H](O[C@H]2[C@H](O)[C@@H](O)C(O)O[C@@H]2CO)[C@H](O)[C@@H](O)[C@@H]1O (mixture of isomers) [Maltose, maltose]
[1]; 20 mg/l maltose as the carbon source, inbred GR013D
  improvement of T0 Txn % relative to seedlings grown on 20 mg/l sucrose: 1.3 fold
[1]; [10]
  # T0 plants: 25
  # culture response (2 wk): 650
  # culture response (4 wk): 562
  T-DNA score (0-5): 4
  TXN %: 83%

## CNc1cnn(-c2cccc(C(F)(F)F)c2)c(=O)c1Cl [norflurazon]
[2]; 0.1 mg/l norflurazon, inbred GR0112, within the first two weeks of culture after Agrobacterium infection
  improvement of T0 Txn % relative to the control treatment: 1.1 fold
[2]; norflurazon 0.1 mg/l in 90AE germination medium, inbred GR0112
  T-DNA score (0-5): 4
[2]; norflurazon 0.1 mg/l, 22 seedlings
  # culture response (2 wk): 350
[2]; norflurazon 1 mg/l in 90AE germination medium, inbred GR0112
  T-DNA score (0-5): 1.5
[2]; norflurazon 1 mg/l, 7 seedlings
  # culture response (2 wk): 19
[2]; norflurazon 3 mg/l in 90AE germination medium, inbred GR0112
  T-DNA score (0-5): 2
[2]; norflurazon 3 mg/l, 7 seedlings
  # culture response (2 wk): 45

## CN(C)NC(=O)CCC(=O)O [Daminozide, daminozide]
[3]; in vivo
  # T0 plants: 71 and 41 and 53
  # culture response (2 wk): 87 and 103 and 70
  # culture response (4 wk): 99 and 103 and 95
  T0 transformation frequencies relative to the control treatment: increase
  T-DNA score (0-5): 4
  TXN %: 355% and 205% and 265%
  trend in the T0 transformation data: no clear trend

## COc1ccc(C(O)(c2cncnc2)C2CC2)cc1 (stereo not drawn) [Ancymidol, ancymidol]
[4]; [11]
  seedling height after 14 days: 1-2 cm
[4]; 900 plus 1 mg/l ancymidol
  number of transgenic T0 plantlets compared to the other two treatments (0 and 2 mg/l): highest
[5]; [11]
  seedling height after 14 days: 1-2 cm
[5]; 900 plus 1 mg/l ancymidol
  number of transgenic T0 plantlets compared to the other two treatments (0 and 2 mg/l): highest
[6]; [11]
  seedling height after 14 days: 1-2 cm
[6]; 900 plus 1 mg/l ancymidol
  number of transgenic T0 plantlets compared to the other two treatments (0 and 2 mg/l): highest
[7]
  Number of: Escapes: 3
  Number of: Events regenerated: 7
  Number of: Leaf segments/pieces responded: 127
  Number of: Putative events: 44
  Number of: RMCE events: 1
  Number of: SSI events: 3

## O=C(COc1ccc(Cl)cc1)N1CCN(Cc2ccc3c(c2)OCO3)CC1 [Fipexide, fipexide]
[8]; [12]
  # culture response (2 wk): 768
  # culture response (4 wk): 829
  T-DNA score (0-5): 4
[8]; 4.75 mg/l
  increase of total somatic embryo (SE) number relative to the control treatment: 1.4 fold
[8]; [13]
  # culture response (2 wk): 681
  # culture response (4 wk): 780
  T-DNA score (0-5): 3.5
[8]; 9.5 mg/l
  increase of total somatic embryo (SE) number relative to the control treatment: 1.3 fold
[8]; [14]
  # culture response (2 wk): 636
  # culture response (4 wk): 733
  T-DNA score (0-5): 3.5
[8]; 19 mg/l
  increase of total somatic embryo (SE) number relative to the control treatment: 1.2 fold

## trans-zeatin
[9]; 1 mg/l
  increase of T0 Txn % relative to the control seedling germination medium with no cytokinin: 1.2 fold
[9]; [15]
  # T0 plants: 102
  # culture response (2 wk): 196
  # culture response (4 wk): 177
  T-DNA score (0-5): 4
  TXN %: 486%
[9]; 3 mg/l
  increase of T0 Txn % relative to the control seedling germination medium with no cytokinin: 1.5 fold
[9]; [16]
  # T0 plants: 130
  # culture response (2 wk): 192
  # culture response (4 wk): 222
  T-DNA score (0-5): 4
  TXN %: 619%

## O=C(Nc1ccccc1)Nc1cnns1 [TDZ, thidiazuron]
[9]; [17]
  # T0 plants: 99
  # culture response (2 wk): 169
  # culture response (4 wk): 121
  T-DNA score (0-5): 4
  TXN %: 471%
[9]; [18]
  # T0 plants: 97
  # culture response (2 wk): 182
  # culture response (4 wk): 122
  T-DNA score (0-5): 4
  TXN %: 462%
[9]; 0.1 and 0.5 mg/l
  change over the control treatment: no increase
[9]; higher concentration ranges, such as 1, 2, 5, or 10 mg/l, stated in present tense, no data
  somatic embryo response and transformation frequency (Txn %): increase

## CC(C)(C)[C@@H](O)[C@@H](Cc1ccc(Cl)cc1)n1cncn1 (racemic) [PBZ, paclobutrazol]
[3]; [19]
  # T0 plants: 60
  # culture response (2 wk): 271
  # culture response (4 wk): 224
  T-DNA score (0-5): 3.5
  TXN %: 250%
[3]; [20]
  # T0 plants: 40
  # culture response (2 wk): 212
  # culture response (4 wk): 156
  T-DNA score (0-5): 3.5
  TXN %: 167%
[3]; [21]
  # T0 plants: 29
  # culture response (2 wk): 151
  # culture response (4 wk): 99
  T-DNA score (0-5): 3.5
  TXN %: 121%
[3]; concentrations tested in Table 24 (paclobutrazol 2-6 mg/l, daminozide 50-150 mg/l)
  trend in the T0 transformation data: no clear trend
[3]; higher concentration ranges 10, 20, 50 mg/l, stated in present tense, no data
  T0 transformation frequencies relative to the control treatment: increase

## c1ccc(CNc2ncnc3nc[nH]c23)cc1 [BAP, 6-benylamino purine]
[9]; 1 mg/l
  increase of T0 Txn % relative to the control seedling germination medium with no cytokinin: 1.4 fold
[9]; [15]
  # T0 plants: 97
  # culture response (2 wk): 135
  # culture response (4 wk): 151
  T-DNA score (0-5): 4
  TXN %: 462%
[9]; 5 mg/l
  increase of T0 Txn % relative to the control seedling germination medium with no cytokinin: 1.8 fold
[9]; [22]
  # T0 plants: 128
  # culture response (2 wk): 144
  # culture response (4 wk): 172
  T-DNA score (0-5): 4
  TXN %: 610%

## C[N+](C)(C)CCCl [Chlormequat chloride, chlormequat chloride]
[3]; [23]
  # T0 plants: 145
  # culture response (2 wk): 265
  # culture response (4 wk): 318
  T-DNA score (0-5): 4.5
  TXN %: 483%
[3]; 250 mg/l pretreatment of ED85E seedlings
  improvement of T0 transformation frequency (Txn %) relative to the control: 1.4 fold
[3]; [24]
  # T0 plants: 108
  # culture response (2 wk): 302
  # culture response (4 wk): 339
  T-DNA score (0-5): 4.5
  TXN %: 360%
